Experiments:
Histone H4 = Histone H4 (Homo sapiens, UniProt P62805); assay: Streptavidin pulldown proteomics (LC-MS/MS), 5637 cells; format: binding; details: 5637, 50 µM
Protocol: (§1) We used proteomics to identify potential molecular targets of 5c. A pulldown assay with streptavidin-agarose-coated magnetic beads was performed. Briefly, 5637 and MB49 cells were incubated with 50 µM 5c for 10 min and 1 h. After incubation, the cells were rinsed three times with cold phosphate-buffered saline (PBS), and cell lysates were prepared and clarified by centrifugation to remove cellular debris, including nuclei. The clarified lysates were incubated with streptavidin-coated magnetic beads to selectively bind biotinylated contents. Bound proteins were separated from unbound proteins through thorough bead washing. Proteins attached to the beads were eluted and analyzed on an Orbitrap Fusion Tribrid mass spectrometer (Thermo Scientific, New York, NY, USA) coupled with an Ultimate 3000 nano-UPLC system. Samples were trapped on a PepMap100 C18 trap column (5 µm, 0.3 × 5 mm) and separated on a PepMap RSLC C18 column (2 µm, 75 µm × 150 mm) using a gradient from 2 to 40% acetonitrile with 0.1% formic acid over 120 min at […] and 40 °C. MS data were acquired in positive mode using data-dependent acquisition (DDA), with precursor scans at 120,000 FWHM (400–2000 m/z), and MS/MS scans in top-speed mode (3 s cycle) using HCD fragmentation (NCE 32%). Proteins were identified and quantified based on peptide spectral matches (PSMs), and fold enrichment compared to controls was calculated to evaluate interaction strength.
(§2) The 5637 and MB49 cells were cultured and treated with higher concentrations of 5c (50 µM) for short period of times (10 min & 60 min) followed by whole cell lysis (WCL) preparation of both treated and untreated cells using modified RIPA buffer [NaCl (100mM), TrisCl (20mM, pH 7.4), EDTA (10 mM), TritonX-100 (0.5%), Glycerol (5%), Protease inhibitor cocktail (1x)] with gentle continuous rotation. The protein content of each WCL was estimated using Pierce™ BCA Protein Assay kit (Thermo-Scientific # 23225). The 100 µL of resuspended Dynabeads™ MyOne™ Streptavidin C1 (Invitrogen # 65001) were washed with PBST (PBS with 0.01% Tween™20) in a magnet stand as recommended in the manufacturer’s instructions. The washed beads were incubated with 200 µg of each WCL in separate tubes at room temperature for 2 h in a gentle end-over-end mixing. After incubation, beads were washed 3–5 times with PBST (0.01% Tween-20) on a magnetic stand and beads were decanted by after spinning and magnetization. The samples were stored at −80 °C till further analysis using LC-MS/MS by the Proteomics and Mass Spectrometry Core Laboratory of Augusta University.

[1] = molecular target: Elongation factor 1-beta (EF1β) (Homo sapiens, UniProt P24534); assay: as above; format: binding; details: 5637, 50 µM
Protocol: as §1, §2

[2] = molecular target: Ribosomal L1 domain-containing protein 1 (RSL1D1) (Homo sapiens, UniProt O76021); assay: as above; format: binding; details: 5637, 50 µM
Protocol: as §1, §2

HSC 71 = HSC 71 (Homo sapiens, UniProt P11142); assay: as above; format: binding; details: 5637, 50 µM
Protocol: as §1, §2

Filamin-A (FLNA) = Filamin-A (FLNA) (Homo sapiens, UniProt P21333); assay: as above; format: binding; details: 5637, 50 µM
Protocol: as §1, §2

[3] = molecular target: Elongation factor 1-gamma (EF1γ) (Homo sapiens, UniProt P26641); assay: as above; format: binding; details: 5637, 50 µM
Protocol: as §1, §2

Histone H2B type 1-M = Histone H2B type 1-M (Homo sapiens, UniProt Q99879); assay: as above; format: binding; details: 5637, 50 µM
Protocol: as §1, §2

[4] = molecular target: D-3-phosphoglycerate dehydrogenase (Homo sapiens, UniProt O43175); assay: as above; format: binding; details: 5637, 50 µM
Protocol: as §1, §2

[5] = molecular target: Elongation factor 2 (eEF2) (Homo sapiens, UniProt P13639); assay: as above; format: binding; details: 5637, 50 µM
Protocol: as §1, §2

[6] = molecular target: Eukaryotic translation initiation factor 5B (eIF5B) (Homo sapiens, UniProt O60841); assay: as above; format: binding; details: 5637, 50 µM
Protocol: as §1, §2

[7] = molecular target: Splicing factor U2AF 65 kDa subunit (U2AF65) (Homo sapiens, UniProt P26368); assay: as above; format: binding; details: 5637, 50 µM
Protocol: as §1, §2

HT1376 cells = assay: ROS estimation with H2DCFDA; format: cell-based, human; details: HT1376, 24 h, especially at concentrations above 20 µM
Protocol: (§3) Since 5c was not toxic to non-tumorigenic cells, such as MCF12A and UROtsa, these cells were excluded from experiments aimed at identifying the broad mechanism of cytotoxicity. A common mechanism by which these antioxidants induce cytotoxicity in tumor cells is by generating Reactive Oxygen Species (ROS) selectively in fast-growing tumor cells. The levels of ROS generated by 5c exposed cells were evaluated with the oxidation of 2′,7′-dichlorodihydrofluorescein diacetate (H2DCFDA). It is a cell-permeant fluorescent probe used for detecting ROS production (Thermo Scientific Inc., Waltham, MA, USA). […] Figure 3 illustrates the quantification of intracellular ROS levels in four bladder cancer cell lines, 5637, T24, HT-1376, and MB49, following treatment with UA and its biotin-conjugated derivative, compound 5c.
(§4) The relative levels of intracellular ROS produced in untreated and drug-treated cells were analyzed by fluorimetry using the fluorescent probe H2DCFDA (Sigma-Aldrich, #D6883, St. Louis, MI, USA), as described previously. Briefly, cells cultured in a 96-well plate at 1 × 10^4 cells per well were treated with drugs of interest for 24 h rinsed with sterile PBS to remove excess drugs, and incubated with 10 μM DCFDA for 30 min at 37 °C and 5% CO2. Following three rinses with PBS, the fluorescence intensity was recorded at excitation: 485/20, emission: 528/20 using a BioTek Synergy HTX Multimode fluorescence plate reader (Agilent Technologies, Inc., Santa Clara, CA, USA), and the data were represented as percentage change compared to the respective untreated control.
(§5) Figure 3 Estimation of oxidative stress: Treatment with UA or 5c increased ROS levels in various bladder cancer cells. ROS levels were estimated at 24 h using DCFDA. The relative fluorescence unit (RFU) was normalized to that observed in untreated cells and expressed as a percent increase. Data are Means ± SD, (n = 4). Relative significance, expressed as p-value are calculated based on one-way ANOVA.

5637 cells = assay: ROS estimation with H2DCFDA; format: cell-based, human; details: 5637, 24 h, especially at concentrations above 20 µM
Protocol: as §3, §4, §5

Filamin-A (FLNA), sequence (P21333 whole entry): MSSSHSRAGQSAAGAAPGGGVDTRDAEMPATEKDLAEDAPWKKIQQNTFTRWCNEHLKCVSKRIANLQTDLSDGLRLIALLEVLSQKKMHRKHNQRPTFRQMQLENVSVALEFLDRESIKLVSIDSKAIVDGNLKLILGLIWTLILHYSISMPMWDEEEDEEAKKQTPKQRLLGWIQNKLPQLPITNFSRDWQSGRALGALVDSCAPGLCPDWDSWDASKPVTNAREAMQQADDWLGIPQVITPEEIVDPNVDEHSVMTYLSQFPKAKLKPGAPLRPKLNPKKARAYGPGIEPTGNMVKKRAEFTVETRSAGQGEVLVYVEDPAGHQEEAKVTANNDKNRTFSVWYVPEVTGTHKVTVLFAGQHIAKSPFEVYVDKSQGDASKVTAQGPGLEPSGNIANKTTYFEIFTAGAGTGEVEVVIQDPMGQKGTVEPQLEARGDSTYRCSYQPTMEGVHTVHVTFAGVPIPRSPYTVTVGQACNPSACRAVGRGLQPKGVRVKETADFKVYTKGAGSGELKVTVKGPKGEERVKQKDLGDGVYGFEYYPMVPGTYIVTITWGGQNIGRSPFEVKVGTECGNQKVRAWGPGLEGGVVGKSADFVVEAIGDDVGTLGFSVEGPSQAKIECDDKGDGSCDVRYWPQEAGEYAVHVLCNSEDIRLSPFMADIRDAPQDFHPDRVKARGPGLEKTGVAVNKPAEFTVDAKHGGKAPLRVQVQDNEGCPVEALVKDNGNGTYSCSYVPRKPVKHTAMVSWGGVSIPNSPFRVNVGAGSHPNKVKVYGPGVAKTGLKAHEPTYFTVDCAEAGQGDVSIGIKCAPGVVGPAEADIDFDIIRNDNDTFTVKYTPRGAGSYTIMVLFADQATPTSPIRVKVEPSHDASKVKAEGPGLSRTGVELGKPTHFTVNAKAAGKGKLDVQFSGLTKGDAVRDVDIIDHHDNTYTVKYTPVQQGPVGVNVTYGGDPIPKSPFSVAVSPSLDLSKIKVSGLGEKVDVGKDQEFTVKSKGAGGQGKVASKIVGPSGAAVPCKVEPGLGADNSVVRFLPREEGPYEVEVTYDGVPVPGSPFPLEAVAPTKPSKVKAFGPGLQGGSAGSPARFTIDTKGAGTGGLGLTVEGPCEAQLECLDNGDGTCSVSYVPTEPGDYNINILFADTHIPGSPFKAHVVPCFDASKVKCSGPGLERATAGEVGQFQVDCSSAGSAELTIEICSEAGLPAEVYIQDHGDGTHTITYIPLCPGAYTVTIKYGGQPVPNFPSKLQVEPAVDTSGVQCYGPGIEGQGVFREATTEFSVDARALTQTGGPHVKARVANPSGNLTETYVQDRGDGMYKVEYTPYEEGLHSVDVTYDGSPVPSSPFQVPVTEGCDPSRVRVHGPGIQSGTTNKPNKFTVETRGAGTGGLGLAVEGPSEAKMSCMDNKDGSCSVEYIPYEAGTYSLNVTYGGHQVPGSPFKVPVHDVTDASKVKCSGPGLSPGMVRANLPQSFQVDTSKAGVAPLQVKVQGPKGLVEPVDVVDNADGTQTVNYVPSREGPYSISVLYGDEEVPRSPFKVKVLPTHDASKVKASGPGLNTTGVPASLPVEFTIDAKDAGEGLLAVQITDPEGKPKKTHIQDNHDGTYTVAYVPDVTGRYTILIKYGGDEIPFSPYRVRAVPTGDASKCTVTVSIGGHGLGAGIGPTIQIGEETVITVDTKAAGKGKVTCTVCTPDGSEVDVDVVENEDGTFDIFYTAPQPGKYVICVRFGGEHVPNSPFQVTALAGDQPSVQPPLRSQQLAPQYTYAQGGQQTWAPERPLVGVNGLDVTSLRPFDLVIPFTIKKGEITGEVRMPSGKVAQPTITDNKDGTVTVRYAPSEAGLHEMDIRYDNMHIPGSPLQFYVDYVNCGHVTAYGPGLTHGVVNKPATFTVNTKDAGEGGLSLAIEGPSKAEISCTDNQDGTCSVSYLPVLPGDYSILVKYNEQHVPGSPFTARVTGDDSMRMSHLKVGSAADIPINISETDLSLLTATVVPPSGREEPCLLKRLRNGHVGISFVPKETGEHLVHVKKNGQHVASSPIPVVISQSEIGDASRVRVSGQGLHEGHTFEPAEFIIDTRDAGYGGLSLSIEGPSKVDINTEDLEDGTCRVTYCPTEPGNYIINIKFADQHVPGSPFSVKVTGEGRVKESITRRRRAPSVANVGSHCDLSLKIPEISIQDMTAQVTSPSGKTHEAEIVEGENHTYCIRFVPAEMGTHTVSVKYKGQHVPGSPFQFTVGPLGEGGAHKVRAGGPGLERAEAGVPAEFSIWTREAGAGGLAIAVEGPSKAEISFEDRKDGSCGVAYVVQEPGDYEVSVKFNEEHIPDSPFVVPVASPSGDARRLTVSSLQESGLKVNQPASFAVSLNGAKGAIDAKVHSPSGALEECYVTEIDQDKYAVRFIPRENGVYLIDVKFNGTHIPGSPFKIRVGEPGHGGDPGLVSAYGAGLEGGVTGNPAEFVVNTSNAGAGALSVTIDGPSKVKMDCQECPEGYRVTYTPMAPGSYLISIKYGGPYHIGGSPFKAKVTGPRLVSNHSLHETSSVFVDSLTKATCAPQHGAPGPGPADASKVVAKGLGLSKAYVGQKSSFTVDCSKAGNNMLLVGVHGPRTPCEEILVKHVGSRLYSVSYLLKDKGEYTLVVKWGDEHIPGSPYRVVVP
Eukaryotic translation initiation factor 5B (eIF5B), sequence (O60841 whole entry): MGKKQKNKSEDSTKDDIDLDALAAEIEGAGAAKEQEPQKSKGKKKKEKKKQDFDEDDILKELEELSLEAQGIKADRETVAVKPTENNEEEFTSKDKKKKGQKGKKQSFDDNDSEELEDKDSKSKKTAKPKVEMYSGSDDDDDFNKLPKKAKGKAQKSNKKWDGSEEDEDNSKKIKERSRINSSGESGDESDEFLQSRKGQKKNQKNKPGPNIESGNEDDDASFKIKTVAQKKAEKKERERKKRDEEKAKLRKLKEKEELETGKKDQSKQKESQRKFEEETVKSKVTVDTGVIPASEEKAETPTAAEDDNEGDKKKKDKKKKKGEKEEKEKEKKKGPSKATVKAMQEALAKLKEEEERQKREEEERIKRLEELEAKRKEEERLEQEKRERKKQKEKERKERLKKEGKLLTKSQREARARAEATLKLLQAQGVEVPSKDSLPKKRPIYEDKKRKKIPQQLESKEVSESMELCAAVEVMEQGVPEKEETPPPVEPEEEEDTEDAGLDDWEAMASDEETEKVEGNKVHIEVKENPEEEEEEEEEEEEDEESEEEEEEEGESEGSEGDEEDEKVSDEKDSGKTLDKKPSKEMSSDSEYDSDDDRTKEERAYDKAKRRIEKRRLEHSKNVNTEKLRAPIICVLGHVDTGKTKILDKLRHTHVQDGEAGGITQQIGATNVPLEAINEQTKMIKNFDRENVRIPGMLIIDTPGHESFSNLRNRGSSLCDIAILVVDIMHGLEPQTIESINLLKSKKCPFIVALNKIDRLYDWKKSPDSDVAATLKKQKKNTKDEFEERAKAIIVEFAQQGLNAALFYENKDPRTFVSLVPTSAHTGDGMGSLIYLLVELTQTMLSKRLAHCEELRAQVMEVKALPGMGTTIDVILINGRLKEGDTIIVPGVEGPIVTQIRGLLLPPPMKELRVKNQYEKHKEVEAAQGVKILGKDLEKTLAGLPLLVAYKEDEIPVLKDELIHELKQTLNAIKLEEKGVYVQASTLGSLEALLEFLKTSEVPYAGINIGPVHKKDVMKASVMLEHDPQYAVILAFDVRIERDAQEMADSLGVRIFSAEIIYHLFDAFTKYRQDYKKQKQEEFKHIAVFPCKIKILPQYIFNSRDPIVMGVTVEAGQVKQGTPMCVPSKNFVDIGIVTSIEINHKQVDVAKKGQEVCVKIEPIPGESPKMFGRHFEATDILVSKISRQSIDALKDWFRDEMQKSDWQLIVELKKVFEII
HSC 71, sequence (P11142 whole entry): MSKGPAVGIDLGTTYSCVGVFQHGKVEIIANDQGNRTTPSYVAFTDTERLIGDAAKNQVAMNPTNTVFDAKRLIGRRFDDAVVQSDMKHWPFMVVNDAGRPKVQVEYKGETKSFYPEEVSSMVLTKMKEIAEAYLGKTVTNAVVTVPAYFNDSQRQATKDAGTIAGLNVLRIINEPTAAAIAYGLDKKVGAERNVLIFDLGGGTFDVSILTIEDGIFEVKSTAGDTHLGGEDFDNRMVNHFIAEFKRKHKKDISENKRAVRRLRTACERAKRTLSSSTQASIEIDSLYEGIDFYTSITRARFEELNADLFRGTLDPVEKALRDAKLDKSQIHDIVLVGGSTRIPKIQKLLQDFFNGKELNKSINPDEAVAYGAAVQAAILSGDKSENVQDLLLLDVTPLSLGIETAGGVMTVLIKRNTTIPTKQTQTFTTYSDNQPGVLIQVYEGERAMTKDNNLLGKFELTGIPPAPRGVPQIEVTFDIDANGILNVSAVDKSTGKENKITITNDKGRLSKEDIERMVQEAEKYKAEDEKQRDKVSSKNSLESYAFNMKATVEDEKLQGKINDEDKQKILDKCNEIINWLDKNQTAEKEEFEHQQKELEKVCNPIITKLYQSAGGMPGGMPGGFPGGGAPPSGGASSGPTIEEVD
Elongation factor 1-beta (EF1β), sequence (P24534 whole entry): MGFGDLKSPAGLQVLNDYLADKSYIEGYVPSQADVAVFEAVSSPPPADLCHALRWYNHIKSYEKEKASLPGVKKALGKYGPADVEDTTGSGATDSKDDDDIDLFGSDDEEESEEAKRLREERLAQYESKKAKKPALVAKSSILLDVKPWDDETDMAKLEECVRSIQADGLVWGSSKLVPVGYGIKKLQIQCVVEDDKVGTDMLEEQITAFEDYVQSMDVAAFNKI

CC1CCC2(C(=O)OCCCCOC(=O)CCCCC3SCC4NC(=O)NC43)CCC3(C)C(=CCC4C5(C)CCC(O)C(C)(C)C5CCC43C)C2C1C [Compound 5c, 4-((5-((3aS,4S,6aR)-2-Oxohexahydro-1H-thieno [3,4-d]imidazol-4-yl)pentanoyl)oxy) butyl 3-hydroxy-urs-12-en-28-oate]
Fold Change 10 min/Ctrl (Histone H4): 13.23
Fold Change 1 h/Ctrl (Histone H4): 11.08
Fold Change 10 min/Ctrl [1]: 2.35
Fold Change 1 h/Ctrl [1]: 2.35
Fold Change 10 min/Ctrl [2]: 5
Fold Change 1 h/Ctrl [2]: 4
Fold Change 10 min/Ctrl (HSC 71): 5.25
Fold Change 1 h/Ctrl (HSC 71): 6.25
Fold Change 10 min/Ctrl (Filamin-A (FLNA)): 16
Fold Change 1 h/Ctrl (Filamin-A (FLNA)): 18
Fold Change 1 h/Ctrl [3]: 6
Fold Change 10 min/Ctrl (Histone H2B type 1-M): 3.16
Fold Change 1 h/Ctrl (Histone H2B type 1-M): 1.37
Fold Change 10 min/Ctrl [4]: 15
Fold Change 1 h/Ctrl [4]: 10
Fold Change 10 min/Ctrl [5]: 44
Fold Change 1 h/Ctrl [5]: 50
Fold Change 10 min/Ctrl [6]: 32
Fold Change 1 h/Ctrl [6]: 34
Fold Change 10 min/Ctrl [7]: 14
Fold Change 1 h/Ctrl [7]: 10
ROS levels (HT1376 cells): higher levels of ROS than UA
ROS levels (5637 cells): higher levels of ROS than UA
